Active and inactive are the calls of the source. The calls are words filed in the database; no cut-off is given here.
Assays:
[1] = Permeability of the compound by PAMPA; type: ADME
[2] = Cmax in CD1 mouse at 10 mg/kg, po administered as single dose by LC/MS/MS analysis; type: ADME, organism-based; design: dose 10 mg/kg, route oral; conditions: in vivo
HCT-116 [3] = assay: Antitumor against human HCT116 cells xenografted in CD1 mouse assessed as tumor growth inhibition at 60 mg/kg, po daily administered on day 1, 2, 3 post-implantation for 2 cycles; conditions: HCT-116, po, read-out: TGI
[4] = Antiproliferative activity against human A2780/ADR cells after 72 hrs by CellTiter-Glo assay; type: functional, cell-based
NCI-H1993 = assay: Antiproliferative activity against human NCI-H1993 cells after 72 hrs by CellTiter-Glo assay; type: functional, cell-based; conditions: NCI-H1993, 72 h
[5] = target: Cyclin-dependent kinase 2/cyclin A (Homo sapiens, UniProt P24941); assay: Inhibition of CDK2/Cyclin A; type: protein-complex assay
[6] = target: T1, Receptor-type tyrosine-protein kinase FLT3 (Homo sapiens, UniProt P36888); assay: Inhibition of FLT3
T1 sequence (P36888 whole entry): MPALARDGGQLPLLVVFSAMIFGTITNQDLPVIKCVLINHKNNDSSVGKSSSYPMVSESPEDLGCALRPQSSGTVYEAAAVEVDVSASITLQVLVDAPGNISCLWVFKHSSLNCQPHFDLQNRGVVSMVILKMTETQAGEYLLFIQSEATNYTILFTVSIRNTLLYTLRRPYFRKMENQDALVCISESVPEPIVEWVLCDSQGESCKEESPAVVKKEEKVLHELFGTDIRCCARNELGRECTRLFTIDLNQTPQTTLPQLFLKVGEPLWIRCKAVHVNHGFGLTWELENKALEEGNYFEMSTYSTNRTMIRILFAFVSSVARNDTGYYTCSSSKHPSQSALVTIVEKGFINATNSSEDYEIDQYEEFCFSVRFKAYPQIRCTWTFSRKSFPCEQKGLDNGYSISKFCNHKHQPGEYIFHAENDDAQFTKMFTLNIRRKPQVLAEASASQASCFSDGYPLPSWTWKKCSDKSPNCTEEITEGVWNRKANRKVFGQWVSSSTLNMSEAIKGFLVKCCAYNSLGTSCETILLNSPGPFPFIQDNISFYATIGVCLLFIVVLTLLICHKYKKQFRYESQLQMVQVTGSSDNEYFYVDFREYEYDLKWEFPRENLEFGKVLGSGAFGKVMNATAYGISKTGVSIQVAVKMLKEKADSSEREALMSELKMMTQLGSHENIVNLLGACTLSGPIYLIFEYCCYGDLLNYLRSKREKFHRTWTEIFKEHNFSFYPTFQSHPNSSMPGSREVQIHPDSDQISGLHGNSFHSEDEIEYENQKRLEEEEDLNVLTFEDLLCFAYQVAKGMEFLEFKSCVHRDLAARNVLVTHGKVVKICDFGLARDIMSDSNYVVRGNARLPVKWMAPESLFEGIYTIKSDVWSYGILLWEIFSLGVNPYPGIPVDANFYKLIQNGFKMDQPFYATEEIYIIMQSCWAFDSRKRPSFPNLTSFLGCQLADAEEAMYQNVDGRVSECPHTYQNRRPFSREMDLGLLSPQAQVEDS

Mus musculus = assay: Toxicity in CD1 mouse xenografted with human HCT116 cells assessed as reversible body weight loss at 30 mg/kg, iv BID administered on day 1, 2 post-implantation in weekly schedule of 3 cycles measured on day 32; conditions: in vivo
HL-60 = assay: Antiproliferative activity against human HL60 cells after 72 hrs by CellTiter-Glo assay; type: functional, cell-based; conditions: HL-60, 72 h
HCT-116 [7] = assay: Induction of cell cycle arrest in human HCT116 cells assessed as accumulation at G2/M phase at 0.005 to 0.5 uM after 24 hrs; type: functional, cell-based

Papp [1]: 50 ×10⁻⁶ cm/s
Cmax [2]: 290 nM
IC50 (NCI-H1993): 195 nM
IC50 [5]: > 10 µM
IC50 [6]: 1520 nM
IC50 (HL-60): 16 nM
SMILES: CN1CCN(c2ccc(OC(F)(F)F)c(Nc3ncc4c(n3)-c3c(c(C(N)=O)nn3C)CC4)c2)CC1
inhibition in vivo at 60 mg/kg (HCT-116 [3]): 70%
IC50 [4]: 51 nM
Activity (Mus musculus): 14%
Activity (HCT-116 [7]): Active

Reference: ChEMBL document CHEMBL1268971, “4,5-Dihydro-1H-pyrazolo[4,3-h]quinazolines as potent and selective Polo-like kinase 1 (PLK1) inhibitors” (Bioorg Med Chem Lett, 2010)
